In brackets after ≈: the same amount, converted by molar mass. Like-named read-outs stand apart in the source and are kept apart here.
Key:
[1] = tested on: Candida glabrata ATCC 2001 (strain H); experiment: MIC determination, in vitro antifungal assay (CLSI M27-A3); type: cell-based; conditions: MIC-0, 48 h at 35° C.
Summary of the method: (§1)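 Inoculum 2-4×10^3 CFU/mL from overnight YPD culture (OD600 0.12 ≈ 1×10^6 CFU/mL). DMSO <1.25% final.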

[2] = tested on: Candida krusei ATCC 6258 (strain I); experiment: as above; type: cell-based; conditions: MIC-0, 48 h at 35° C.
Summary of the method: as §1

[3] = tested on: C. albicans ATCC MYA-1003(R) (strain G); experiment: as above; type: cell-based, Candida albicans; conditions: MIC-0, 48 h at 35° C.
Summary of the method: as §1

[4] = tested on: C. albicans ATCC MYA-2876(S) (strain C); experiment: as above; type: cell-based, Candida albicans; conditions: MIC-0, 48 h at 35° C.
Summary of the method: as §1

[5] = tested on: murine red blood cells (mRBCs); conditions: for Percentage of hemolysis (±SDEV): mouse, 60 min
Experimental: Thus, the hemolytic activity for these bishydrazones was investigated against murine red blood cells (mRBCs).
Murine red blood cells (mRBCs) were prepared by suspending 1 mL of murine blood in 3 mL of PBS prior to centrifugation at 1,000 rpm for 5 min. The mRBCs were washed four times in PBS and resuspended in the same buffer to a final concentration of 10^7 mRBC/mL. […] The tubes were incubated at 37° C. for 60 min. […] Eppendorf tubes containing 200 μL of ddH2O and 2 μL of 1% v/v Triton™ X-100 served as negative (blank) and positive controls, respectively. The percentage of hemolysis was calculated using the following equation: % hemolysis=[(absorbance of sample)−(absorbance of blank)]×100/(absorbance of positive control).

[6] = tested on: C. albicans ATCC 64124(R) (strain B); experiment: MIC determination, in vitro antifungal assay (CLSI M27-A3); type: cell-based, Candida albicans; conditions: strain B, MIC-0, 48 h at 35° C.
Summary of the method: (§2)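 Yeast from a single colony is grown overnight in YPD at 35° C with shaking, adjusted to OD600 0.12, then diluted into RPMI 1640 to 2-4×10^3 CFU/mL. Compounds are tested by modified CLSI M27-A3 microdilution, DMSO <1.25%, and MIC is scored as complete inhibition.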

[7] = tested on: C. albicans ATCC MYA-2310(S) (strain E); experiment: as above; type: cell-based, Candida albicans; conditions: MIC-0, 48 h at 35° C.
Summary of the method: as §2

[8] = tested on: C. albicans ATCC MYA-1237(R) (strain F); experiment: as above; type: cell-based, Candida albicans; conditions: MIC-0, 48 h at 35° C.
Summary of the method: as §2

[9] = tested on: C. albicans ATCC 90819(R) (strain D); experiment: as above; type: cell-based, Candida albicans; conditions: Candida albicans, ATCC90819, 48 h, MIC-0, 48 h at 35° C., read-out: MIC
Summary of the method: as §2

[10] = Nakaseomyces glabratus, ATCC2001, 48 h, read-out: MIC
[11] = Pichia kudriavzevii, ATCC6258, 48 h, read-out: MIC
[12] = Candida albicans, 48 h, read-out: MIC
[13] = Candida albicans, ATCC64124, 48 h, read-out: MIC

Compound	MIC [1, 10]	MIC [2, 11]	MIC [3, 12]	MIC [3]	MIC [4, 12]	Percentage of hemolysis (±SDEV) ([5]; 0.975 μg/mL)	Percentage of hemolysis (±SDEV) ([5]; 1.95 μg/mL)	Percentage of hemolysis (±SDEV) ([5]; 3.9 μg/mL)	Percentage of hemolysis (±SDEV) ([5]; 7.8 μg/mL)	Percentage of hemolysis (±SDEV) ([5]; 15.6 μg/mL)	Percentage of hemolysis (±SDEV) ([5]; 31.3 μg/mL)	Percentage of hemolysis (±SDEV) ([5]; 62.5 μg/mL)	MIC [6, 13]	MIC [7, 12]	MIC [8, 12]	MIC [9]	MIC [2]	MIC [4]	MIC [6]	MIC [7]	further results
Fc1ccc(N/N=C/c2ccc(-c3cccc(/C=N/Nc4ccc(F)cc4)c3)cc2)cc1 [Compound 17a]	> 31.3 µg/mL	> 31.3 µg/mL	1.95 to 3.9 µg/mL (≈ 4.57 to 9.14 µM)	3.9 µg/mL (≈ 9.14 µM)	7.8 µg/mL (≈ 18.3 µM)	0%	6.0 ± 2.1%	4.3 ± 1.6%	9.5 ± 3.3%	9.9 ± 2.1%	14.4 ± 0.9%	26.1 ± 11.1%	15.6 µg/mL (≈ 36.6 µM)	7.8 µg/mL (≈ 18.3 µM)	15.6 µg/mL (≈ 36.6 µM)	> 31.3 µg/mL	–	–	–	–	–
Fc1ccc(N/N=C/c2ccc(-c3ccc(/C=N/Nc4ccc(F)cc4)cc3)cc2)cc1 [Compound 17b]	7.8 to 15.6 µg/mL (≈ 18.3 to 36.6 µM)	1.95 µg/mL (≈ 4.57 µM)	7.8 to 15.6 µg/mL (≈ 18.3 to 36.6 µM)	7.8 µg/mL (≈ 18.3 µM)	7.8 to 15.6 µg/mL (≈ 18.3 to 36.6 µM)	0%	1.1 ± 1.5%	0.7 ± 1.1%	3.2 ± 3.0%	9.0 ± 8.5%	9.6 ± 6.7%	28.3 ± 4.1%	7.8 to 15.6 µg/mL (≈ 18.3 to 36.6 µM)	7.8 to 15.6 µg/mL (≈ 18.3 to 36.6 µM)	7.8 to 15.6 µg/mL (≈ 18.3 to 36.6 µM)	31.3 µg/mL (≈ 73.4 µM)	1.95 µg/mL (≈ 4.57 µM)	7.8 µg/mL (≈ 18.3 µM)	15.6 µg/mL (≈ 36.6 µM)	15.6 µg/mL (≈ 36.6 µM)	MIC [1]: 15.6 µg/mL (≈ 36.6 µM); MIC [8]: 7.8 µg/mL (≈ 18.3 µM)
C/C(=N\Nc1ccc(F)cc1)c1ccc(-c2ccc(/C(C)=N/Nc3ccc(F)cc3)cc2)cc1 [Compound 17c, 4,4′-bis((E)-1-(2-(4-fluorophenyl)hydrazono)ethyl)-1,1′-biphenyl]	15.6 µg/mL (≈ 34.3 µM)	1.95 to 3.9 µg/mL (≈ 4.29 to 8.58 µM)	7.8 µg/mL (≈ 17.2 µM)	–	1.95 to 3.9 µg/mL (≈ 4.29 to 8.58 µM)	1.4 ± 1.1%	2.6 ± 0.9%	2.6 ± 2.7%	5.9 ± 0.3%	7.4 ± 1.1%	9.5 ± 2.2%	26.2 ± 7.7%	1.95 to 3.9 µg/mL (≈ 4.29 to 8.58 µM)	1.95 to 3.9 µg/mL (≈ 4.29 to 8.58 µM)	7.8 µg/mL (≈ 17.2 µM)	7.8 µg/mL (≈ 17.2 µM)	1.95 µg/mL (≈ 4.29 µM)	3.9 µg/mL (≈ 8.58 µM)	3.9 µg/mL (≈ 8.58 µM)	1.95 µg/mL (≈ 4.29 µM)	–
Fc1ccc(N/N=C/c2ccc(-c3cccc(/C=N/Nc4ccc(F)cc4F)c3)cc2)c(F)c1 [Compound 20a]	15.6 µg/mL (≈ 33.7 µM)	1.95 to 3.9 µg/mL (≈ 4.22 to 8.43 µM)	7.8 µg/mL (≈ 16.9 µM)	–	15.6 µg/mL (≈ 33.7 µM)	0%	4.5 ± 2.3%	4.2 ± 2.8%	8.6 ± 1.6%	14.6 ± 1.6%	14.6 ± 0.7%	–	7.8 µg/mL (≈ 16.9 µM)	15.6 µg/mL (≈ 33.7 µM)	7.8 µg/mL (≈ 16.9 µM)	15.6 µg/mL (≈ 33.7 µM)	1.95 µg/mL (≈ 4.22 µM)	–	–	–	hemolytic activity (in words) [5]: lack of hemolytic activity
